{
  "source": "patent US12575570B2",
  "about": "“Aqueous composition of Epyrifenacil, Mesotrione and Pyroxasulfone” (Valent U.S.A. LLC, priority 2020, dated 2026)",
  "origin": "cited, not measured here",
  "data": [
    {"compound": "CS(=O)(=O)c1ccc(C(=O)C2C(=O)CCCC2=O)c([N+](=O)[O-])c1", "note": "[mesotrione, 2-(4-mesyl-2-nitrobenzoyl)cyclohexane-1,3-dione]", "values": [
      {"measurement": "water solubility", "result": 160, "unit": "ppm"}
    ]}
  ]
}
